These results are taken from patent US7385086B2 (priority 1997, dated 2008).

The assay relates to isoniazid (INH) resistant M. tuberculosis. The class given is cell-based, Mycobacterium tuberculosis.

On to `CCCCCCCCS(=O)(=O)CC(N)=O` [HIII-50, n-Octanesulphonylacetamide], for which the growth inhibition entry is on record as “inhibits”.

As for `NNC(=O)c1ccncc1` [isoniazid, reference compound], the isoniazid resistance level is over 0.4 µg/mL.
